Assay results reported in patent US7754654B2, “Substituted spirocyclic ketoenols” (Bayer CropScience AG, priority 2002, dated 2010).

Key:
Assay type in all cases: in vivo
[1] = system: larvae of the mustard beetle (Phaedon cochleariae); assay: Phaedon larvae test (cabbage leaf dip); settings: 1000 ppm
Experimental: To produce a suitable preparation of active compound, 1 part by weight of active compound is mixed with the stated amounts of solvent and emulsifier, and the concentrate is diluted with emulsifier-containing water to the desired concentration. Cabbage leaves (Brassica oleracea) are treated by being dipped into the preparation of active compound of the desired concentration and are populated with larvae of the mustard beetle (Phaedon cochleariae) while the leaves are still moist. After the desired period of time, the kill in % is determined. 100% means that all beetle larvae have been killed; 0% means that none of the beetle larvae have been killed.

[2] = system: Alopecurus; assay: Pre-emergence test; settings: 250 g of ai/ha, after three weeks
Experimental: (§1) To produce a suitable preparation of active compound, 1 part by weight of active compound is mixed with the stated amount of solvent, the stated amount of emulsifier is added and the concentrate is diluted with water to the desired concentration. Seeds of the test plants are sown in normal soil. After about 24 hours, the soil is sprayed with the preparation of active compound such that the particular amounts of active compound desired are applied per unit area. The concentration of the spray liquor is chosen such that the particular amounts of active compound desired are applied in 1000 l of water/ha. After three weeks, the degree of damage to the plants is rated in % damage in comparison to the development of the untreated control. The figures denote: • 0%=no effect (like untreated control) • 100%=total destruction

[3] = system: Echinochloa; assay: Pre-emergence test; settings: 250 g of ai/ha, after three weeks
Experimental: as §1

[4] = system: Sugar beet; assay: Pre-emergence test; settings: 250 g of ai/ha, after three weeks
Experimental: as §1

[5] = system: Amaranthus; assay: Pre-emergence test; settings: 250 g of ai/ha, after three weeks
Experimental: as §1

[6] = system: Setaria; assay: Pre-emergence test; settings: after three weeks
Experimental: as §1

[7] = system: Avena fatua; assay: Pre-emergence test; settings: 250 g of ai/ha, after three weeks
Experimental: as §1

[8] = system: Sinapis; assay: Pre-emergence test; settings: 250 g of ai/ha, after three weeks
Experimental: as §1

[9] = system: Abutilon; assay: Post-emergence test; settings: 250 g of ai/ha, after three weeks
Experimental: as §1, with “Test plants” for “Seeds”, “a height of 5-15 cm” for “the test plants”, “are” for “are sown in normal soil. After about 24 hours, the soil is”

[10] = system: Sugar beet; assay: Post-emergence test; settings: 250 g of ai/ha, after three weeks
Experimental: as §1, with “Test plants” for “Seeds”, “a height of 5-15 cm” for “the test plants”, “are” for “are sown in normal soil. After about 24 hours, the soil is”

[11] = system: Amaranthus; assay: Post-emergence test; settings: 250 g of ai/ha, after three weeks
Experimental: as §1, with “Test plants” for “Seeds”, “a height of 5-15 cm” for “the test plants”, “are” for “are sown in normal soil. After about 24 hours, the soil is”

[12] = system: Setaria; assay: Post-emergence test; settings: 250 g of ai/ha, after three weeks
Experimental: as §1, with “Test plants” for “Seeds”, “a height of 5-15 cm” for “the test plants”, “are” for “are sown in normal soil. After about 24 hours, the soil is”

[13] = system: Avena fatua; assay: Post-emergence test; settings: 250 g of ai/ha, after three weeks
Experimental: as §1, with “Test plants” for “Seeds”, “a height of 5-15 cm” for “the test plants”, “are” for “are sown in normal soil. After about 24 hours, the soil is”

[14] = system: Sinapis; assay: Post-emergence test; settings: 250 g of ai/ha, after three weeks
Experimental: as §1, with “Test plants” for “Seeds”, “a height of 5-15 cm” for “the test plants”, “are” for “are sown in normal soil. After about 24 hours, the soil is”

[15] = system: Ipomoea; assay: Pre-emergence test; settings: 125 g of ai/ha, after three weeks
Experimental: as §1

[16] = system: Digitaria; assay: Pre-emergence test; settings: 125 g of ai/ha, after three weeks
Experimental: as §1

[17] = system: Lolium; assay: Pre-emergence test; settings: 125 g of ai/ha, after three weeks
Experimental: as §1

[18] = system: Eriochloa; assay: Pre-emergence test; settings: 125 g of ai/ha, after three weeks
Experimental: as §1

[19] = system: Maize; assay: Pre-emergence test; settings: 125 g of ai/ha, after three weeks
Experimental: as §1

[20] = system: Alopecurus; assay: Post-emergence test; settings: 250 g of ai/ha, after three weeks
Experimental: as §1, with “Test plants” for “Seeds”, “a height of 5-15 cm” for “the test plants”, “are” for “are sown in normal soil. After about 24 hours, the soil is”

[21] = system: Galium; assay: Post-emergence test; settings: 250 g of ai/ha, after three weeks
Experimental: as §1, with “Test plants” for “Seeds”, “a height of 5-15 cm” for “the test plants”, “are” for “are sown in normal soil. After about 24 hours, the soil is”

[22] = system: Cyperus; assay: Post-emergence test; settings: 250 g of ai/ha, after three weeks
Experimental: as §1, with “Test plants” for “Seeds”, “a height of 5-15 cm” for “the test plants”, “are” for “are sown in normal soil. After about 24 hours, the soil is”

In the case of Cc1cc(C)c(C2=C(O)C3(CCC(OCC4CCCO4)CC3)NC2=O)c(C)c1 (single isomer, unassigned) [Ex. I-1-a-7], the “Kill rate in % after 7d” value [1] is reported as 100%, the “% damage” value [2] is reported as 80% and the “% damage” value [3] is reported as 99%. For the same compound, the “% damage” value [4] was 0%, the “% damage” value [5] was 95% and the “% damage” value ([6]; 250 g of ai/ha) was 100%. The “% damage” value [7] was 95% and the “% damage” value [8] was 90%.
With Cc1cc(C)c(C2=C(O)C3(CCC(OCc4cccc(Cl)c4)CC3)NC2=O)c(C)c1 (single isomer, unassigned) [Ex. I-1-a-23] the “% damage” value [9] was 80%, the “% damage” value [10] was 0% and the “% damage” value [11] was 90%. The “% damage” value [12] was 95%, the “% damage” value [13] was 80% and the “% damage” value [14] was 90%. The “% damage” value [15] was 80%, the “% damage” value [16] was 100% and the “% damage” value [17] was 80%. The “% damage” value [18] was 99%, the “% damage” value ([6]; 125 g of ai/ha) was 95% and the “% damage” value [19] was 0%.
With Cc1cc(C)c(C2=C(O)C3(CCC(OCc4ccc(Cl)cc4)CC3)NC2=O)c(C)c1 (single isomer, unassigned) [Ex. I-1-a-27] the “% damage” value [20] was 90%, the “% damage” value [9] was 80% and the “% damage” value [11] was 90%. The “% damage” value [21] was 70% and the “% damage” value [14] was 80%.
In the case of Cc1cc(C)c(C2=C(OC(=O)C(C)C)C3(CCC(OCc4ccccc4)CC3)NC2=O)c(C)c1 (single isomer, unassigned) [Ex. I-1-b-2], the “% damage” value [20] is reported as 80%, the “% damage” value [10] is reported as 0% and the “% damage” value [12] is reported as 95%. The “% damage” value [22] was 80% and the “% damage” value [14] was 70%.
